The values that follow come from patent publication US6579989B1, “Sulphostin analogue and process for producing sulphostin and its analogue” (Zaidan Hojin Biseibutsu Kagaku Kenkyu Kai, priority 1999, dated 2003).

In the assay the target is T1, dipeptidylpeptidase IV (Rattus norvegicus, UniProt P14740).
T1 construct: partially purified through ammonium sulfate fractionation of a homogenate obtained from a kidney of a rat; from tissue; host or cells: rat kidney homogenate
As to the kind of experiment: Measurement of dipeptidylpeptidase IV inhibiting activity (glycyl prolyl β-naphthylamide substrate, absorbance at 525 nm). The class given is biochemical. Conditions: IC50 (dipeptidylpeptidase IV inhibition activity), enzyme partially purified from rat kidney homogenate; pH 7.2, 37° C., 1 hour. The procedure: Measurement of Dipeptidylpeptidase IV Inhibiting Activity
Water was added to a mixture of 0.025 ml of 3.2 mM glycyl prolyl β-naphthylamide (BACHEM, Switzerland), 0.1 ml of 0.1 M tris-maleic acid buffer solution (pH 7.2) and a compound shown in Table 1, so that a final volume was adjusted to 0.2 ml. The resulting mixed solution was warmed at 37° C. for 10 minutes, and 0.025 ml of a dipeptidylpeptidase IV solution partially purified through ammonium sulfate fractionation of a homogenate obtained from a kidney of a rat was added thereto. Then, the reaction was continued at 37° C. for 1 hour. […] At the same time, a blank test was conducted to measure absorbance (b) of the buffer solution containing no specimen. A dipeptidylpeptidase IV inhibition percent was calculated from the expression: [(b−a)/b]×100.

Broadly, the IC50 is the midpoint of a concentration-inhibition curve. The low end stands for higher potency, the high end for lower potency.

T1 sequence (P14740 whole entry): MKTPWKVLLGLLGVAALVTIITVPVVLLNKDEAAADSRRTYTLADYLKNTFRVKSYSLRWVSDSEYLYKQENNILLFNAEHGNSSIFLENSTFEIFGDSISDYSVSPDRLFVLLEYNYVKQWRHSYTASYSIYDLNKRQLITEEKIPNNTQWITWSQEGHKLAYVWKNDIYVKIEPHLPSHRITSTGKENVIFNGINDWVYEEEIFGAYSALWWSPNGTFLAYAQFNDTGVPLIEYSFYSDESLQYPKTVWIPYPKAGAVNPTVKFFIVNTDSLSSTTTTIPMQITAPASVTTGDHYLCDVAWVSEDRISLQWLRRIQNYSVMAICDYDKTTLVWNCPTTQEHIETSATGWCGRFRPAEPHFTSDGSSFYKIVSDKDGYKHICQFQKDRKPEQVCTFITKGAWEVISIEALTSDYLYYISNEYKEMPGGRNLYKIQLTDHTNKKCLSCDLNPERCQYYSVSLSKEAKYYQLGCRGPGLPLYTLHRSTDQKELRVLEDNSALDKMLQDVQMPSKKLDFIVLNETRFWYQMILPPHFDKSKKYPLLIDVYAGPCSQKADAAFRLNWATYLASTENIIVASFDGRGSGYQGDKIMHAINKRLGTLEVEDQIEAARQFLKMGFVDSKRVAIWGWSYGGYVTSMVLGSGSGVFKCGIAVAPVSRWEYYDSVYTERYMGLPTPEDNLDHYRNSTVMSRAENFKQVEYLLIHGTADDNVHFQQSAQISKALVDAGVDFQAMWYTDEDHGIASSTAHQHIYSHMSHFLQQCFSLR

For the compound `N[C@H]1CCN(P(N)(=O)NS(=O)(=O)O)C1=O` (single isomer, unassigned) [Compound 21, 3(S)-Amino-1-((R*)-amino(sulfoamino)phosphinyl)-2-pyrrolidone], the midpoint of inhibition, the IC50, lay at 0.0151 µM. In the case of `N[C@H]1CCN(P(N)(=O)NS(=O)(=O)O)C1=O` (single isomer, unassigned) [Compound 20, 3(S)-Amino-1-((S*)-amino(sulfoamino)phosphinyl)-2-pyrrolidone] it was 1.82 µM.
